System: gut microbiota
Assay: Gut microbiome analysis (16S rRNA sequencing of fecal samples) in STAM model of NASH
Format: in vivo, C57BL/6J mice
Conditions: pre
Description: The study is reported in accordance with Animal Research: Reporting of In Vivo Experiments (ARRIVE) guidelines. C57BL/6J mice were obtained from Japan SLC, Inc. (Japan). All animals used in this study were cared for under the following guidelines: Act on Welfare and Management of Animals (Ministry of the Environment, Japan, Act No. 105 of Oct. 1, 1973), standards relating to the care and management of laboratory animals and relief of pain (Notice No. 88 of the Ministry of the Environment, Japan, Apr. 28, 2006) and the guidelines for proper conduct of animal experiments (Science Council of Japan, Jun. 1, 2006). Protocol approvals were obtained from SMC Laboratories, Japan's IACUC (Study reference no: […] Mice were maintained in a specific pathogen-free (SPF) facility under controlled conditions of temperature (23±3° C.), humidity (50±20%), lighting (12-hour artificial light and dark cycles; light from 8:00 to 20:00) and air exchange. The STAM model of NASH was induced as previously described [D10]. Mice were given a single subcutaneous injection of 200 μg streptozotocin (STZ, Sigma-Aldrich, USA) solution 2 days after birth and fed with a high-fat diet (HFD, 57 kcal % fat, Cat #HFD32, CLEA Japan, Inc., Japan) from 4-9 weeks of age. All mice develop liver steatosis and diabetes and at […] mice had established steatohepatitis, histologically. Studygroups: There were five study groups, described below. Eight mice were included in each study group. Eight NASH mice were orally administered vehicle supplemented with AFO-202 Beta Glucan at a dose of 1 mg/kg in a volume of 5 mL/kg once daily from 6 to 9 weeks of age. Eight NASH mice were orally administered vehicle supplemented with Telmisartan at a dose of 10 mg/kg once daily from 6 to 9 weeks of age. Frequency: Fecal samples were collected at the 6 weeks of age (before administration) and 9 weeks of age (before sacrifice). Procedure: At 6 weeks of age, fecal samples were collected from each mouse by clean catch method. […] A sterile petri dish was placed on the bench. Gently massage the abdomen, position the bottom of mouse over a fresh petri dish, and collect 1-2 fecal pellets. At sacrifice, fecal samples were aseptically collected from cecum. The tubes with feces were placed on ice immediately. These tubes were snap frozen in liquid nitrogen and stored at -80° C. for shipping. In this analysis, the 16S rRNA sequence data acquired by the next-generation sequencer from the fecal […] was used to perform community analysis using the QIIME2 program for microbial community analysis. The raw read data in FASTQ format output from the next-generation sequencer was trimmed to remove adapter sequences and low QV regions that may be included in the data. Cutadapt was used to remove adapter sequences from DNA sequencing reads. Trimmomatic was used as read trimming tool for Illumina NGS data. The adapter sequence was trimmed using the adapter trimming program “cutadapt” if the Trimming of the region at the end of the read sequence overlapped the corresponding sequence by at least one base (mismatch tolerance: 20%). When reads containing N were present in at least one of Read1 and Read2, both Read1 and Read2 were removed. Trimming of low QV regions was performed on the read data after processing using the QV trimming program “Trimmomatic” under the following conditions. The window of 20 bases is slid from the 5' side, and the area where the average QV is less than 20 is trimmed. After trimming, only the reads with more than 50 bases remaining in both Read1 and Read2 were taken as output. The microbial community analysis based on 16S rRNA sequence was performed on the sequence data trimmed in the previous section using the microbial community analysis program “QIIME2”. The annotation program “sklearn” included in QIIME2 is used to annotate the ASV (OTU) sequences. […]

Structure (SMILES): CCCc1nc2c(C)cc(-c3nc4ccccc4n3C)cc2n1Cc1ccc(-c2ccccc2C(=O)O)cc1 [Telmisartan]
- Abundance S24-7/—/— (line r81): 327
- Abundance Lachnospiraceae/[Ruminococcus]/gnavus (line r83): 120
- Abundance Ruminococcaceae/Oscillospira/— (line r84): 284
- Abundance Ruminococcaceae/Anaerotruncus/— (line r85): 638
- Abundance Alcaligenaceae/Sutterella/— (line r86): 191
- Abundance S24-7/—/— (line r87): 394
- Abundance F16/—/— (line r88): 329
- Abundance Other/Other/Other (line r90): 276
- Abundance Lachnospiraceae/[Ruminococcus]/gnavus (line r91): 168
- Abundance S24-7/—/— (line r92): 476
- Abundance Rikenellaceae/—/— (line r93): 259
- Abundance Lachnospiraceae/[Ruminococcus]/gnavus (line r94): 62
- Abundance Lachnospiraceae/—/— (line r95): 250
- Abundance Clostridiaceae/Other/Other (line r96): 693
- Abundance Lachnospiraceae/—/— (line r97): 78
- Abundance Ruminococcaceae/Oscillospira/— (line r98): 160
- Abundance Enterococcaceae/Enterococcus/— (line r99): 32
- Abundance Rikenellaceae/—/— (line r100): 239
- Abundance S24-7/—/— (line r101): 208
- Abundance Lactobacillaceae/Lactobacillus/reuteri (line r102): 0
- Abundance Bacteroidaceae/Bacteroides/acidifaciens (line r103): 161
- Abundance Ruminococcaceae/Oscillospira/— (line r104): 202
- Abundance Enterobacteriaceae/Escherichia/coli (line r105): 0
- Abundance Ruminococcaceae/Oscillospira/— (line r106): 152
- Abundance —/—/— (line r107): 228
- Abundance S24-7/—/— (line r108): 157
- Abundance —/—/— (line r109): 988
- Abundance Other/Other/Other (line r110): 463
- Abundance Lachnospiraceae/—/— (line r111): 46
- Abundance Lachnospiraceae/[Ruminococcus]/gnavus (line r112): 148
- Abundance Lachnospiraceae/—/— (line r113): 390
- Abundance Enterobacteriaceae/Klebsiella/Other (line r114): 0
- Abundance Lachnospiraceae/—/— (line r115): 76
- Abundance Enterobacteriaceae/Klebsiella/— (line r116): 0
- Abundance —/—/— (line r117): 0
- Abundance Lactobacillaceae/Lactobacillus/— (line r118): 4
- Abundance Other/Other/Other (line r119): 57
- Abundance —/—/— (line r120): 209
- Abundance Erysipclotrichaceae/Allobaculum/— (line r121): 203
- Abundance —/—/— (line r122): 131
- Abundance Lachnospiraceae/—/— (line r123): 207
- Abundance —/—/— (line r124): 362
- Abundance Other/Other/Other (line r125): 58
- Abundance Lactobacillaceae/Lactobacillus/reuteri (line r126): 0
- Abundance Ruminococcaceae/Oscillospira/— (line r127): 158
- Abundance Lachnospiraceae/—/— (line r128): 50
- Abundance S24-7/—/— (line r130): 64
- Abundance Lachnospiraceae/—/— (line r131): 315
- Abundance S24-7/—/— (line r132): 104
- Abundance S24-7/—/— (line r133): 60
- Abundance Lachnospiraceae/—/— (line r134): 19
- Abundance —/—/— (line r135): 28
- Abundance Coriobacteriaceae/Adlercreutzia/— (line r136): 110
- Abundance —/—/— (line r137): 200
- Abundance Clostidiaceae/Other/Other (line r138): 0
- Abundance Turicibacteraceae/Turicibacter/— (line r139): 125
- Abundance Ruminococcaceae/Ruminococcus/— (line r140): 193
- Abundance Ruminococcaceae/Oscillospira/— (line r141): 215
- Abundance Dehalobacteriaceae/Dehalobacterium/— (line r142): 43
- Abundance Staphylococcaceae/Staphylococcus/Other (line r143): 110
- Abundance Rikenellaceae/—/— (line r144): 61
- Abundance Lachnospiraceae/—/— (line r145): 87
- Abundance —/—/— (line r146): 60
- Abundance Staphylococcaceae/Staphylococcus/sciuri (line r147): 34
- Abundance —/—/— (line r148): 103
- Abundance Ruminococcaceae/Ruminococcus/— (line r149): 157
- Abundance Coriobacteriaceae/Adlercreutzia/— (line r150): 101
- Abundance Ruminococcaceae/Oscillospira/— (line r151): 61
- Abundance Lachnospiraceae/Clostridium/Other (line r152): 85
- Abundance Lachnospiraceae/Coprococcus/— (line r153): 151
- Abundance Desulfovibrionaceae/—/— (line r154): 50
- Abundance —/—/— (line r155): 94
- Abundance Lachnospiraceae/—/— (line r156): 0
- Abundance Dehalobacteriaceae/Dehalobacterium/— (line r157): 41
- Abundance Coriobacteriaceae/Adlercreutzia/— (line r158): 90
- Abundance Lachnospiraceae/—/— (line r159): 37
- Abundance Lachnospiraceae/—/— (line r160): 168
- Abundance Ruminococcaceae/Oscillospira/— (line r161): 0
- Abundance Streptococcaceae/Streptococcus/— (line r163): 0
- Abundance Lachnospiraceae/[Ruminococcus]/gnavus (line r164): 83
- Abundance Lachnospiraceae/—/— (line r165): 102
- Abundance Lachnospiraceae/—/— (line r166): 231
- Abundance Coriobacteriaceae/Adlercreutzia/— (line r167): 74
- Abundance Erysipelotrichaceae/Clostridium/cocleatum (line r169): 0
- Abundance S24-7/—/— (line r170): 53
- Abundance Lachnospiraceae/—/— (line r171): 27
- Abundance Bacteroidaceae/Bacteroides/— (line r172): 55
- Abundance Ruminococcaceae/Oscillospira/— (line r173): 59
- Abundance Ruminococcaceae/—/— (line r174): 41
- Abundance Lachnospiraceae/Other/Other (line r175): 52
- Abundance Lachnospiraceae/Dorea/— (line r176): 28
- Abundance Lachnospiraceae/—/— (line r177): 0
- Abundance S24-7/—/— (line r178): 168
- Abundance Lachnospiraceae/—/— (line r179): 92
- Abundance Lactobacillaceae/Lactobaccilus/Other (line r180): 0
- Abundance —/—/— (line r181): 34
- Abundance Ruminococcaceae/Oscillospira/— (line r182): 99
- Abundance S24-7/—/— (line r183): 55
- Abundance S24-7/—/— (line r184): 67
- Abundance [Mogibacteriaceae]/—/— (line r185): 36
- Abundance Peptococcaceae/—/— (line r186): 43
- Abundance —/—/— (line r187): 13
- Abundance —/—/— (line r188): 0
- Abundance S24-7/—/— (line r189): 76

From patent US20240374631A1, “A COMPOSITION FOR IMPROVING GUT MICROBIOTA, BEHAVIOURAL PATTERN, ALPHA-SYNUCLEIN LEVELS, SLEEP PATTERN AND/OR SERUM MELATONIN” (GN Corporation Co Ltd, priority 2021, published 2024)
